Experimental data: ChEMBL document CHEMBL4043194, “Nrf2 activators from Glycyrrhiza inflata and their hepatoprotective activities against CCl4-induced liver injury in mice” (Bioorg Med Chem, 2017)

tested on: HepG2; experiment: Cytotoxicity in human HepG2 cells expressing Nrf2/ARE-driven luciferase at 10 to 40 uM incubated for 6 hrs; assay type: cell-based; details: hepg2, 6 h

| Structure (SMILES) | Activity |
| --- | --- |
| C=CC(C)(C)c1cc(/C=C/C(=O)c2ccc(O)c(O)c2)c(OC)cc1O | Toxic |
| C=C(C)[C@H](C)c1cc(/C=C/C(=O)c2ccc(O)cc2)c(OC)cc1O [LICOCHALCONE E] | Toxic |
| COc1c(/C=C/C(=O)c2ccc(O)cc2)cc(CC=C(C)C)c(O)c1O | Toxic |

biological target: T1, Nuclear factor erythroid 2-related factor 2 (Homo sapiens) (UniProt Q16236); experiment: Activation of Nrf2 (unknown origin) expressed in human HepG2 cells at 2.5 to 10 uM incubated for 6 hrs by ARE-driven luciferase reporter gene assay; assay type: cell-based; details: not given
T1 sequence (whole entry): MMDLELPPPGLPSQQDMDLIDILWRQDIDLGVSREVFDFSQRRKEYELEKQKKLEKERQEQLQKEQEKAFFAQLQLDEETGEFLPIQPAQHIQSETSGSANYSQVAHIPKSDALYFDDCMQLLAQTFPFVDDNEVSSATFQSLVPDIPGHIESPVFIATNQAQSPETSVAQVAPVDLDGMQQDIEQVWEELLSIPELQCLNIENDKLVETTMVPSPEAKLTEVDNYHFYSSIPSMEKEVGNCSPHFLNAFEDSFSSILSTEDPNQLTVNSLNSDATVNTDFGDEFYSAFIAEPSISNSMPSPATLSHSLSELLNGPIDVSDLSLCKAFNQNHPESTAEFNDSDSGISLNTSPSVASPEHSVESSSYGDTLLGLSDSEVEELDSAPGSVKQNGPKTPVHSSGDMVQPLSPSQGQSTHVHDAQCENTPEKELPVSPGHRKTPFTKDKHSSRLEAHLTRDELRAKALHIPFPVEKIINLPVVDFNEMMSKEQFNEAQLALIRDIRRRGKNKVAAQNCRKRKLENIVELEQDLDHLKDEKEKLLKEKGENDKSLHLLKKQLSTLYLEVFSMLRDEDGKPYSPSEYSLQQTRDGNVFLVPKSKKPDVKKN

| Activity | Structure (SMILES) |
| --- | --- |
| Dose-dependent effect | C=CC(C)(C)c1cc(/C=C/C(=O)c2ccc(O)c(O)c2)c(OC)cc1O |
| Dose-dependent effect | C=C(C)[C@H](C)c1cc(/C=C/C(=O)c2ccc(O)cc2)c(OC)cc1O [LICOCHALCONE E] |
| Dose-dependent effect | COc1c(/C=C/C(=O)c2ccc(O)cc2)cc(CC=C(C)C)c(O)c1O |

biological target: T1, Nuclear factor erythroid 2-related factor 2 (Homo sapiens); experiment: Activation of Nrf2 (unknown origin) expressed in human HepG2 cells at 2.5 to 20 uM incubated for 6 hrs by ARE-driven luciferase reporter gene assay; assay type: cell-based; details: not given

| Activity | Structure (SMILES) |
| --- | --- |
| Dose-dependent effect | C=CC(C)(C)c1cc(/C=C/C(=O)c2ccc(O)cc2)c(OC)c(O)c1O |
| Dose-dependent effect | COc1c(/C=C/C(=O)c2ccc(O)c(CC=C(C)C)c2)ccc(O)c1O [LICOCHALCONE D] |
| Dose-dependent effect | CC(C)=CCc1c(O)ccc(-c2cc3ccc(O)cc3o2)c1O [2'-O-DEMETHYLBIDWILLOL B] |

biological target: T1, Nuclear factor erythroid 2-related factor 2 (Homo sapiens); experiment: Activation of Nrf2 (unknown origin) expressed in human HepG2 cells at 10 uM incubated for 6 hrs by ARE-driven luciferase reporter gene assay relative to untreated control; assay type: cell-based; details: not given

| fold change (FC) | Structure (SMILES) |
| --- | --- |
| 1.98 | CC(C)=CCc1c(O)ccc([C@H]2COc3cc(O)c(CC=C(C)C)c(O)c3C2=O)c1O |
| 2.17 | CC1(C)C=Cc2c(cc3occ(-c4ccc(O)cc4)c(=O)c3c2O)O1 |
| 1.42 | COc1ccc(-c2coc3c(O)c(O)c(CC=C(C)C)cc3c2=O)c(O)c1 |
| 1.87 | COc1cc(O)c(-c2coc3cc(O)ccc3c2=O)c(OC)c1CC=C(C)C |
| 1.56 | CC(C)=CCc1c(O)ccc(C(=O)/C=C/c2ccc(O)c(O)c2)c1O |
| 3.09 | C=CC(C)(C)c1cc(/C=C/C(=O)c2ccc(O)cc2)c(OC)c(O)c1O |
| 4.67 | O=C(/C=C/c1ccc(O)cc1)c1ccc(O)cc1O |
| 1.54 | COC(C)(C)c1cc2cc3c(=O)cc(-c4ccc(O)c(CC=C(C)C)c4)oc3cc2o1 |
| 1.88 | CC(C)=CCc1c(O)cc(O)c2c1OC[C@@H](c1ccc3c(c1O)C=CC(C)(C)O3)C2=O |
| 2.37 | CC1(C)C=Cc2cc(/C=C/C(=O)c3ccc(O)cc3O)ccc2O1 |
| 1.84 | CC(C)=CCc1cc([C@@H]2CC(=O)c3ccc(O)cc3O2)cc2c1OC(C)(C)C=C2 |
| 2.12 | O=C1c2ccc(O)cc2OCC1c1ccc(O)c(O)c1 (centres undefined) |
| 4.53 | COc1c(/C=C/C(=O)c2ccc(O)c(CC=C(C)C)c2)ccc(O)c1O [LICOCHALCONE D] |
| 2.65 | COc1ccc(-c2coc3cc(O)ccc3c2=O)cc1 |
| 1.46 | CC(C)=CCc1c(O)c(CC=C(C)C)c2oc(-c3ccc(O)cc3)cc(=O)c2c1O |
| 2.36 | COc1cc2occ(-c3ccc(O)cc3O)c(=O)c2c(O)c1CC=C(C)C |
| 2.28 | COc1ccc(-c2coc3cc(O)ccc3c2=O)c(O)c1 |
| 4.34 | CC(C)=CCc1c(O)ccc(-c2cc3ccc(O)cc3o2)c1O [2'-O-DEMETHYLBIDWILLOL B] |
| 1.42 | CC1(C)C=Cc2c(O)ccc(C3COc4cc(O)cc(O)c4C3=O)c2O1 (centres undefined) |
| 1.73 | CC(C)=CCc1cc(-c2cc(=O)c3cc4c(cc3o2)OC(C)(C)C=C4)ccc1O |
| 1.59 | CC(C)=CCc1cc([C@@H]2CC(=O)c3cc(CC=C(C)C)c(O)cc3O2)ccc1O |
| 1.4 | CC(C)=CCc1c(O)ccc2c1O[C@H](c1ccc3c(c1)C=CC(C)(C)O3)CC2=O |
| 1.23 | COc1ccc2c(c1)OC[C@H]1c3ccc(O)cc3O[C@@H]21 |
| 1.37 | CC(C)=CCc1c(O)cc2occ(-c3ccc4c(c3O)C=CC(C)(C)O4)c(=O)c2c1O |

| fold change (FC) | Structure (SMILES) |
| --- | --- |
| 1.18 | CC1(C)C(=O)CC[C@]2(C)[C@H]3C(=O)C=C4[C@@H]5C[C@@](C)(C(=O)O)CC[C@]5(C)CC[C@@]4(C)[C@]3(C)[C@@H](O)C[C@@H]12 |
| 1.05 | CC(C)=CCc1cc2c(=O)cc(-c3ccc(O)cc3)oc2cc1O |
| 5.98 | C=CC(C)(C)c1cc(/C=C/C(=O)c2ccc(O)c(O)c2)c(OC)cc1O |
| 1.91 | CC(C)=CCc1c(O)ccc(C(=O)/C=C/c2ccc(O)cc2)c1O |
| 1.91 | CC(C)=CCc1cc(-c2coc3cc(O)cc(O)c3c2=O)cc(O)c1O |
| 1.12 | COc1cc(-c2coc3cc(O)ccc3c2=O)ccc1O |
| 1.21 | CC(C)=CCc1c(O)c(CC=C(C)C)c2occ(-c3ccc(O)cc3)c(=O)c2c1O |
| 1.97 | O=C1C[C@@H](c2ccc(O)cc2)Oc2cc(O)ccc21 |
| 0.76 | CC1(C)C=Cc2cc(-c3coc4cc(O)cc(O)c4c3=O)ccc2O1 |
| 1.03 | CC(C)=CCc1cc2c(=O)cc(-c3ccc4c(c3)C=CC(C)(C)O4)oc2cc1O |
| 1.21 | CC(C)=CCc1cc(C2CC(=O)c3ccc(O)c(CC=C(C)C)c3O2)ccc1O (centres undefined) |
| 1.51 | CC(C)=CCc1c(O)cc2occ(-c3cc(O)c4c(c3)C=CC(C)(C)O4)c(=O)c2c1O |
| 1.42 | COc1c(/C=C/C(=O)c2ccc(O)cc2)ccc(O)c1CC=C(C)C |
| 1.98 | CC(C)=CCc1c(O)ccc(-c2coc3c(CC=C(C)C)c(O)cc(O)c3c2=O)c1O |
| 1.08 | CC1(C)C=Cc2c(ccc(-c3cc4ccc(O)cc4o3)c2O)O1 |
| 2.33 | CC(C)=CCc1c(O)cc2c(c1O)C(=O)[C@H](c1ccc3c(c1O)C=CC(C)(C)O3)CO2 |
| 2.07 | COc1c(/C=C/C(=O)c2ccc(O)c(O)c2)ccc(O)c1CC=C(C)C |
| 1.47 | CC1(C)C=Cc2c(ccc(-c3coc4cc(O)cc(O)c4c3=O)c2O)O1 |
| 1.81 | CC(C)=CCc1c(O)ccc2c1oc1c3ccc(O)cc3oc(=O)c21 |
| 1.2 | CC(C)=CCc1cc(-c2coc3c(CC=C(C)C)c(O)cc(O)c3c2=O)cc(O)c1O |
| 2.15 | CC(C)=CCc1c(O)ccc(-c2coc3cc(O)ccc3c2=O)c1O |
| 1.54 | O=C1C[C@@H](c2cc(O)cc(O)c2)Oc2cc(O)ccc21 |
| 2.58 | CC1(C)C=Cc2c(ccc3c2OC[C@@H](c2ccc(O)cc2O)C3)O1 |
| 1.05 | CC(C)=CCc1c(O)ccc(-c2coc3cc(O)c(CC=C(C)C)c(O)c3c2=O)c1O |

| fold change (FC) | Structure (SMILES) |
| --- | --- |
| 1.72 | O=C1c2c(O)cc(O)cc2OCC1c1ccc(O)cc1 (centres undefined) |
| 2.49 | CC(C)=CCc1c(O)ccc(-c2coc3cc(O)cc(O)c3c2=O)c1O |
| 1.41 | CC(C)=CCc1cc([C@@H]2CC(=O)c3c(O)cc(O)c(CC=C(C)C)c3O2)ccc1O |
| 1.23 | O=c1cc(-c2ccc(O)cc2)oc2cc(O)ccc12 |
| 1.7 | CC1(C)C=Cc2c(O)ccc(-c3coc4cc(O)cc(O)c4c3=O)c2O1 |
| 2.76 | CC1(CO)C=Cc2c(ccc(-c3coc4cc(O)ccc4c3=O)c2O)O1 (centres undefined) |
| 5.94 | C=C(C)[C@H](C)c1cc(/C=C/C(=O)c2ccc(O)cc2)c(OC)cc1O [LICOCHALCONE E] |
| 1.06 | COc1ccc(C2COc3c(cc(CC=C(C)C)c(O)c3O)C2=O)cc1 (centres undefined) |
| 1.2 | O=c1c(-c2ccc(O)cc2)coc2cc(O)cc(O)c12 |
| 1.78 | CC(C)=CCc1c(O)cc(O)c2c(=O)c(-c3ccc(O)cc3O)coc12 |
| 1.43 | CC1(C)[C@@H](O)CC[C@]2(C)[C@H]3CC=C4[C@@H]5C[C@@](C)(C(=O)O)CC[C@]5(C)CC[C@@]4(C)[C@]3(C)CC[C@@H]12 |
| 2.98 | CC(C)=CCc1cc(-c2cc(=O)c3c(O)c(CC=C(C)C)c(O)cc3o2)ccc1O |
| 1.13 | CC1(C)C=Cc2cc(-c3coc4cc(O)cc(O)c4c3=O)cc(O)c2O1 |
| 2.2 | CC(C)=CCc1cc([C@@H]2CC(=O)c3ccc(O)cc3O2)ccc1O |
| 2.3 | CC1(C)C=Cc2cc(-c3coc4cc(O)ccc4c3=O)c(O)cc2O1 |
| 3.39 | COc1c(/C=C/C(=O)c2ccc(O)cc2)cc(CC=C(C)C)c(O)c1O |
| 1.76 | CC1(C)C=Cc2c(ccc3c(=O)c(-c4ccc(O)cc4O)coc23)O1 |
| 1.87 | CC(C)=CCc1cc(/C=C/C(=O)c2ccc(O)cc2O)ccc1O |
| 1.56 | CC(C)=CCc1c(O)cc(O)c2c(=O)c(-c3ccc4c(c3O)C=CC(C)(C)O4)coc12 |
| 1.85 | O=C(/C=C/c1ccc(O)c(O)c1)c1ccc(O)c(O)c1 |
| 1.4 | CC1(C)C=Cc2c(ccc(-c3coc4cc(O)ccc4c3=O)c2O)O1 |
| 1.34 | CC(C)=CCc1c(O)cc2occ(-c3ccc4c(c3)C=CC(C)(C)O4)c(=O)c2c1O |
| 1.49 | CC(C)=CCc1c(O)cc2occ(-c3ccc(O)cc3)c(=O)c2c1O |
| 1.22 | CC(C)=CCc1cc(/C=C/C(=O)c2ccc(O)c(CC=C(C)C)c2O)ccc1O |

tested on: HepG2; experiment: Cytotoxicity in human HepG2 cells expressing Nrf2/ARE-driven luciferase at 20 to 40 uM incubated for 6 hrs; assay type: cell-based; details: hepg2, 6 h

| Structure (SMILES) | Activity |
| --- | --- |
| C=CC(C)(C)c1cc(/C=C/C(=O)c2ccc(O)cc2)c(OC)c(O)c1O | Toxic |
| COc1c(/C=C/C(=O)c2ccc(O)c(CC=C(C)C)c2)ccc(O)c1O [LICOCHALCONE D] | Toxic |
| CC(C)=CCc1c(O)ccc(-c2cc3ccc(O)cc3o2)c1O [2'-O-DEMETHYLBIDWILLOL B] | Toxic |
